From patent US20110189291A1, “DENDRIMER HYDROGELS” (priority 2009, published 2011)
Values after ≈ are worked out from the molar mass of the structure shown. Values joined by “and” are separate entries in the source; they are usually repeats but may differ in a detail not shown here. Identical values can stand only once. Counter-ions that a name gives are not always drawn. Like-named read-outs stand apart in the source and are kept apart here.

What was measured:
[1] = Ex vivo transcorneal transport
Protocol: 1. Corneas were isolated from freshly excised bovine eyes and mounted in Using chambers. 2. […] Note: Both drugs were present together in this hydrogel/solution cocktail. 3. […] 4. 200 μl of sample was collected from the receiver side with fresh assay buffer replacement at the end of 1, 2, 3, 4 and 6 h. 5. […] 6. Samples were stored at −80° C. prior to analysis. 7. Cumulative percent transport was normalized to the amount of drug present at zero time point.

[2] = Ex vivo bovine eye tissue uptake after topical dosing; type: in vitro ADME
Protocol: 1. […] Eyes were kept in the muffin plate and partially dipped into PBS pH 7.4. 3. 50 μl of hydrogel formulation or solution was instilled gently as an eye drop onto the corneal surface. 4. After every 15 minutes, 50 μl of fresh PBS pH 7.4 was instilled as an eye drop to prevent corneal drying. 5. At the end of 1 h, eyes were dissected and the following tissues were collected: corneal epithelium, stroma, endothelium and aqueous humor. Tissues were stored at −80° C. before sample processing and analysis. 1. Tissues weights were recorded and 0.49 ml of 2% NaOH solution was added to these tissues along with 10 μl of IS of 12.5 μg/ml. 2. Samples were homogenized, sonicated, and extracted with organic solvent. Final reconstitution was done in 0.5 ml of acetonitrile-water mixture (75:25).

[3] = In vitro drug release by dialysis in pH 7.4 PBS at 37° C.; type: physicochemical; details: for time for complete release (in words): from eye drop formulations
Protocol: The control eye drop formulation was PBS containing 0.1% brimondien and 0.5% timiolol maleate. […] The dissolution medium was maintained at 37±2° C. and constantly agitated in a shaker incubator. 4. Dissolution medium was completely replaced at all time intervals with 1.5 ml of fresh dissolution medium maintained at 37±2° C. 5. The amount of drug released in the dissolution medium at each time interval was analyzed by LC-MS.

physchem = details: for solubility: thermodynamic from solid, saturated concentration (solubility); for solubility / saturated concentration (solubility): room temperature
Protocol: Following overnight equilibration at room temperature, the solution was vortexed again and then centrifuged at 10,000 rpm for 5 min to remove undissolved drug. The sample solution was diluted by a factor of 100 in PBS, and absorbance value (Y) at 248 nm was recorded on a GENESYS™ 6 UV-Visual spectrophotometer. Thus, drug concentration (C in μg/mL) was determined using the following regression equation: C=(Y−0.005)/0.063. […] Measurements were done in duplicate.
Following overnight equilibration at room temperature, the solution was vortexed again and then centrifuged to remove undissolved drug. The supernatant was collected, diluted by a factor of 100 in PBS, and its absorbance value (Y) at 248 nm was recorded on a GENESYS™ 6 UV-Visual spectrophotometer. Thus, drug concentration [C] (μg/mL) was determined using the following regression equation: C=(Y−0.005)/0.063 [2]. […] Measurements were done in duplicate.

[4] = test system: Human corneal epithelial cells (HCET); type: cell-based; details: 1 h
Protocol: The uptake of brimonidine and timolol maleate by HCET cells after entrapment of the drugs in a hydrogel was studied. As a control, eye drop formulation of both the drugs in phosphate buffer saline was used. • 1. Human corneal epithelial cells (HCET, passage #40) were seeded in a 48 well plate (BD, Falcon®, Multiwell™ tissue culture plates) at a seeding density of 5000 cells/well. • 2. The cells were allowed to adhere to the surface of the well overnight. • 3. […] The cells were washed twice with 200 μl cold PBS pH 7.4 and twice with 200 μl cold acidic PBS pH 5.0. All the washes were collected. Finally, 200 μl of 1% w/v Triton X 100 solution was transferred to each well and allowed to stand for 30 minutes. • 6. The cells were scraped (dislodged) using a pipette tip and suspension of cells in 1% Triton X 100 solution was collected. • 7. Samples were processed as follows: 100 μl of sample collected as described above was diluted to 500 μl using acetonitrile. The samples were vortexed for 10 minutes and centrifuged at 10,000 rpm for 5 minutes, and then analyzed using LC-MS as described in Table 4. Dorzolamide was used as an internal standard

duration of sustained release ([3]; from DH formulation)	time for complete release (in words) [3]	Mean % drug content in first wash with acidic buffer [4]	Mean % drug content in second wash with acidic buffer [4]	Mean % drug content in supernatant after completion of study [4]	Mean % drug content in first wash with acidic buffer ([4]; pH 7.4)	Mean % drug content in second wash with acidic buffer ([4]; pH 7.4)	Mean % drug content in supernatant after completion of study ([4]; pH 7.4)	Structure (SMILES)	further results
~72 h	within one hour and a half	0.00%	0.00%	0.00%	93.13%	2.92%	0.06%	Brc1c(NC2=NCCN2)ccc2nccnc12 [brimonidine]	corneal transport, hydrogel formulation versus solution (in words) ([1]; at the end of 6 h): slightly higher transport; cumulative percentage transport across the cornea ([1]; from the DH formulation, at 6 h): 1.06±0.18%; level in aqueous humor, hydrogel versus eye drop formulation (in words) ([2]; 1 h after topical instillation): significant difference in drug level was not observed; duration of sustained release ([3]; from hydrogel Formulation C (0.1% brimonidine, 0.5% timolol maleate), 37° C.): 72 h; solubility (physchem; 8.1% (w/v) G3.0-PEG-dA in PBS, aqueous with cosolvent or surfactant or cyclodextrin, in the presence of G3.0-PEG-dA (8.1% w/v in PBS; DH formulation)): 696 µg/mL; solubility increase (physchem; G3.0-PEG-dA / DH formulation versus plain PBS): 77.5% and 77.6%; solubility (physchem; PBS, aqueous buffer, plain PBS): 392 µg/mL (≈ 1340 µM); saturated concentration (solubility) (physchem; in the presence of G3.0-PEG-dA (8.1% w/v in PBS; DH formulation)): 696 µg/mL; saturated concentration (solubility) (physchem; plain PBS): 392 µg/mL; Mean % drug content in cell lysate after completion of study (uptake) [4]: 76.17%; uptake with DH formulation higher than with eye drop formulation [4]: 19 fold
~56 h	within one hour and a half	0.0%	14.9%	0.1%	0.0%	34.7%	0.2%	CC(C)(C)NC[C@H](O)COc1nsnc1N1CCOCC1 [timolol maleate]	corneal transport, hydrogel formulation versus solution (in words) [1]: higher from hydrogel; cumulative percentage transport across the cornea ([1]; bovine, 6 h, pH 7): 13.54±1.83%; level from hydrogel formulation more than from eye drop solution ([2]; bovine, 1 h, 0.5 %, pH 7.4): 40%
